The target in test [1] is T1, PrP^Sc (Bos taurus, UniProt P10279). In kind it is binding, cattle.
Test [2] concerns PrP^Sc.
Test [3] concerns the target T1, PrP^Sc. In kind it is binding, cattle. As to conditions: pH 3.

These results are taken from patent publication US20060094071A1 (priority 2002, published 2006).

Where no end group is shown, it is not given here. The star is where a group is joined. Propionyl = CCC(=O)*

Consider “Leu-Pro-Phe-Phe-Asp (LPFFD; beta-sheet binding peptide) [Peptide 3]”, for which the “PrP^Sc binding efficiency (relative)” value in the test with PrP^Sc [1] was determined as 46.6%.
For Propionyl-IIGL [Peptide 4], the “PrP^Sc binding efficiency (relative)” value on PrP^Sc [1] came to 55.1%.
On to “Propionyl-DArg-DArg-DA1a-DPhe-DPhe-DVal-amide [Peptide 7]”, for which, on PrP^Sc [1], the “PrP^Sc binding efficiency (relative)” value was 76.5%.
As to Propionyl-RIIGL [Peptide 5], the “PrP^Sc binding efficiency (relative)” value on PrP^Sc [1] was 58.1%.
On to Arg-Val-Val-Ile-Ala [Peptide 1], for which the “PrP^Sc binding efficiency (relative)” value on PrP^Sc [1] came to 54.7%.
With Lys-Leu-Val-Phe-Phe [Peptide 2], the “PrP^Sc binding efficiency (relative)” value in the test with PrP^Sc [1] was 100.0%. Further, the “Extinction at 450 nm, BSE-positive versus BSE-negative animals” value in the test with PrP^Sc [2] is reported as “significantly (t-test) raised”. In addition, in the test with PrP^Sc [3], the Elution efficiency entry is on record as “remained almost completely bound”.
In the case of Gly-Val-Val-Ile-Ala [Peptide 6], at PrP^Sc [1], the “PrP^Sc binding efficiency (relative)” value came to 64.5%.
